From patent US20180311342A1, “IMMUNOSTIMULATING AGENT” (AJINOMOTO CO., INC., priority 2017, published 2018) come the findings set out here.

Assay type in all cases: in vivo, BALB/c mice
Assay [1] concerns anti-OVA-specific IgG1 subclass antibody. In words: Adjuvant activity test: anti-OVA-specific IgG1 subclass antibody in serum of OVA-immunized mice (ELISA). Particulars: after primary immunization, serum 2 weeks later; OVA 5 μg + compound 0.256 μmol in 5% αCD-added saline (Addavax mixed with saline at 1:1), dorsal-subcutaneous; compared to OVA single administration group. (An ELISA detects its analyte on a solid surface through an enzyme-linked reagent.)

Assay [2] concerns anti-OVA-specific IgG1 and IgG2a subclass antibody production. In words: Evaluation test of adjuvant activity (overall conclusion from anti-OVA IgG1 and IgG2a production). The note with it: compound 0.256 μmol in 5% αCD-added saline with OVA 5 μg, dorsal-subcutaneous. As for the experimental part:
8-Week-old female BALB/c mice were divided into groups (N=6), and each group was primarily immunized by dorsal-subcutaneous administration of (1) ovalbumin (OVA) (5 μg) dissolved in saline as an antigen (OVA single administration group), (2) OVA 5 μg and Addavax™ (mixed with saline at 1:1) dissolved in saline (Addavax™ administration group) as positive control adjuvant, (3) OVA 5 μg and SZ137 0.256 μmol dissolved or dispersed in 5% α-cyclodextrin (hereinafter to be simply referred to as αCD)-added saline (SZ137 administration group), (4) OVA (5 μg) and SZ138 (0.256 μmol) dissolved or dispersed in 5% αCD-added saline (SZ138 administration group), (5) OVA (5 μg) and SZ142 (0.256 μmol) dissolved or dispersed in 5% αCD-added saline (SZ142 administration group), (6) OVA (5 μg) and SZ144 (0.256 μmol) dissolved or dispersed in 5% αCD-added saline (SZ144 administration group), (7) OVA (5 μg) and SZ145 (0.256 μmol) dissolved or dispersed in 5% αCD-added saline (SZ145 administration group), (8) OVA (5 μg) and SZ146 (0.256 μmol) dissolved or dispersed in 5% αCD-added saline (SZ146 administration group), (9) OVA (5 μg) and SZ147 (0.256 μmol) dissolved or dispersed in 5% αCD-added saline (SZ147 administration group), (10) OVA (5 μg) and SZ148 (0.256 μmol) dissolved or dispersed in 5% αCD-added saline (SZ148 administration group), each per mouse. Two week later, the secondary immunization was carried out by dorsal-subcutaneous administration of solutions or dispersions similar to those of the above-mentioned (1)-(10) again. […]
To a 96 well plate was added 5 μg/ml OVA at 100 µl/well, and the mixture was incubated at 4° C. overnight. After incubation, the mixture was washed three times with 200 μl of PBS-T (PBS (phosphate buffered saline)+0.05% (v/v) Tween 20) per well, and blocked with 100 μl of 5% FCS (fetal calf serum)/PBS solution per well at room temperature for 1-2 hr. Thereafter, the mixture was washed three times with PBS-T (200 μl/well), a diluted serum sample (100 l/well) or the same amount of 5% FCS/PBS solution as a control was added, and the mixture was incubated at 37° C. for 1 hr. To calculate concentration of the antibody, the standard of an anti-OVA-specific IgG1 subclass antibody diluted with 2% FCS/PBS solution was added at 100 ng/ml, 50 ng/ml, 25 ng/ml, 12.5 ng/ml, 6.25 ng/ml, 3.125 ng/ml, 1.56 ng/ml, 0.781 ng/ml, 0.391 ng/ml, 0.195 ng/ml, 0.098 ng/ml, 0 ng/ml, per 1 well. When an anti-OVA-specific IgG2a subclass antibody was measured, the standard of an anti-OVA-specific IgG2a subclass antibody was added at 50 ng/ml, 25 ng/ml, 12.5 ng/ml, 6.25 ng/ml, 3.125 ng/ml, 1.56 ng/ml, 0.781 ng/ml, 0.391 ng/ml, 0.195 ng/ml, 0.098 ng/ml, 0.049 ng/ml, 0 ng/ml, per 1 well. Thereafter, similar to the samples, the mixture was washed five times with PBS-T (200 μl/well), a diluted biotinylated anti-mouse IgG1 antibody and IgG2a antibody were added (100 μl/well), and the mixture was incubated at 37° C. for 45 min. Thereafter, the mixture was washed five times with PBS-T (200 μl/well), a diluted anti-biotin-HRP antibody was added (100 μl/well), and the mixture was incubated at 37° C. for another 30 min. Thereafter, the mixture was washed five times with PBS-T (200 μl/well), TMB substrate solution was added (100 μl/well), and the mixture was incubated at room temperature for 10-15 min. Thereafter, a reaction quenching liquid (2N sulfuric acid solution) was added (50 l/well) to discontinue a color developing reaction, and the absorbance (OD Value=450 nm) was measured by a microplate reader. A standard curve was drawn from the measured OD values, and the concentration was calculated. […]

The test system of assay [3] is anti-OVA-specific IgG2a subclass antibody. In words: Adjuvant activity test: anti-OVA-specific IgG2a subclass antibody in serum of OVA-immunized mice (ELISA). The note with it: after primary immunization, serum 2 weeks later; OVA 5 μg + compound 0.256 μmol in 5% αCD-added saline (Addavax mixed with saline at 1:1), dorsal-subcutaneous; compared to OVA single administration group.

[4] abbreviates: conclusion from IgG1/IgG2a after primary immunization.
[5] abbreviates: conclusion from IgG1/IgG2a after secondary immunization.

With `CCCCCCCCCCCCCCCC(=O)N[C@@H](CCCNC(=N)N)C(=O)NCCCCCCCC.Cl` [SZ181, N-[(1S)-4-guanidino-1-(octylcarbamoyl)butyl]hexadecanamide hydrochloride], the “anti-OVA-specific IgG1 subclass antibody production” value in assay [1] was “a tendency toward increase was found”. The adjuvant activity entry in assay [2] (setting [4]) and in assay [2] (setting [5]) was “have an adjuvant activity” in each case. In addition, the “anti-OVA-specific IgG2a subclass antibody production” value in assay [3] is “a tendency toward increase was found”.

Take `CCCCCCCCCCCCCCCCCC(=O)N[C@@H](CCCNC(=N)N)C(=O)NCCCCCCCC.Cl` [SZ182, N-[(1S)-4-guanidino-1-(octylcarbamoyl)butyl]octadecanamide hydrochloride]: the “anti-OVA-specific IgG1 subclass antibody production” value in assay [1] was “a tendency toward increase was found”. The adjuvant activity result in assay [2] (setting [4]) and in assay [2] (setting [5]) was “have an adjuvant activity” in each case. Moreover, in assay [3], the “anti-OVA-specific IgG2a subclass antibody production” value was “a tendency toward increase was found”.

On to `CCCCCCCCCCCCCCCCCCCC(=O)N[C@@H](CCCNC(=N)N)C(=O)NCCCCCCCC.Cl` [SZ183, N-[(1S)-4-guanidino-1-(octylcarbamoyl)butyl]icosanamide hydrochloride], for which, in assay [1], the “anti-OVA-specific IgG1 subclass antibody production” value is “significant enhancement”. Further, the adjuvant activity result in assay [2] (setting [4]) and in assay [2] (setting [5]) was “have an adjuvant activity” throughout. The “anti-OVA-specific IgG2a subclass antibody production” value in assay [3] is “significant enhancement”.

For `CCCCCCCCCCCCCCCCCC(=O)N[C@@H](CCCCN)C(=O)NCCCCCCCC.Cl` [SZ184, N-[(1S)-5-amino-1-(octylcarbamoyl)pentyl]octadecanamide hydrochloride], in assay [1], the “anti-OVA-specific IgG1 subclass antibody production” value is on record as “a tendency toward increase was found”. Further, the adjuvant activity result in assay [2] (setting [4]) and in assay [2] (setting [5]) was “have an adjuvant activity” throughout. Further, in assay [3], the “anti-OVA-specific IgG2a subclass antibody production” value was “a tendency toward increase was found”.

In the case of `CCCCCCCCCCCCCCCCCC(=O)N[C@@H](CCCCN)C(=O)NCCCCCCCCCCCC.Cl` [SZ185, N-[(1S)-5-amino-1-(dodecylcarbamoyl)pentyl]octadecanamide hydrochloride], the “anti-OVA-specific IgG1 subclass antibody production” value in assay [1] is “significant enhancement”. Moreover, the adjuvant activity entry in assay [2] (setting [4]) and in assay [2] (setting [5]) was “have an adjuvant activity” each time. Also, the “anti-OVA-specific IgG2a subclass antibody production” value in assay [3] is recorded as “significant enhancement”.

Regarding `CCCCCCCCCCCCNC(=O)[C@H](CCCNC(=N)N)NC(=O)OCCCCCCCCCCCC.Cl` [SZ187, dodecyl N-[(1S)-1-(dodecylcarbamoyl)-4-guanidino-butyl]carbamate hydrochloride], the “anti-OVA-specific IgG1 subclass antibody production” value in assay [1] was “significant enhancement”. In addition, the adjuvant activity result in assay [2] (setting [4]) and in assay [2] (setting [5]) was “have an adjuvant activity” in each case. In addition, the “anti-OVA-specific IgG2a subclass antibody production” value in assay [3] is on record as “significant enhancement”.

Regarding `CCCCCCCCCCCCCCCCOC(=O)N[C@@H](CCCCN)C(=O)NCCCCCCCC.Cl` [SZ188, hexadecyl N-[(1S)-5-amino-1-(octylcarbamoyl)pentyl]carbamate hydrochloride], the “anti-OVA-specific IgG1 subclass antibody production” value in assay [1] is “a tendency toward increase was found”. The adjuvant activity result in assay [2] (setting [4]) and in assay [2] (setting [5]) was “have an adjuvant activity” in each case. Also, the “anti-OVA-specific IgG2a subclass antibody production” value in assay [3] is “a tendency toward increase was found”.

For the molecule `CCCCCCCCCCCCCCCCOC(=O)N[C@@H](CCCCN)C(=O)NCCCCCCCCCCCC.Cl` [SZ189, hexadecyl N-[(1S)-5-amino-1-(dodecylcarbamoyl)pentyl]carbamate hydrochloride], the “anti-OVA-specific IgG1 subclass antibody production” value in assay [1] is given as “a tendency toward increase was found”. Also, the adjuvant activity entry in assay [2] (setting [4]) and in assay [2] (setting [5]) was “have an adjuvant activity” each time. Moreover, the “anti-OVA-specific IgG2a subclass antibody production” value in assay [3] is “a tendency toward increase was found”.

As to `CCCCCCCCCCCCCCCCNC(=O)NCCCCNC(=N)N.Cl` [SZ190, 1-(4-guanidinobutyl)-3-hexadecyl-urea hydrochloride], the “anti-OVA-specific IgG1 subclass antibody production” value in assay [1] was “a tendency toward increase was found”. Also, the adjuvant activity result in assay [2] (setting [4]) and in assay [2] (setting [5]) was “have an adjuvant activity” in each case. For the same molecule, the “anti-OVA-specific IgG2a subclass antibody production” value in assay [3] is “a tendency toward increase was found”.

Take `CCCCCCCCCCCCCCCCCC(=O)N[C@H](CCCNC(=N)N)C(=O)NCCCCCCCCCCCC.Cl` [SZ191, N-[(1R)-1-(dodecylcarbamoyl)-4-guanidino-butyl]octadecanamide hydrochloride]: in assay [1], the “anti-OVA-specific IgG1 subclass antibody production” value was “significant enhancement”. Further, the adjuvant activity entry in assay [2] (setting [4]) and in assay [2] (setting [5]) was “have an adjuvant activity” each time. In assay [3], the “anti-OVA-specific IgG2a subclass antibody production” value is given as “significant enhancement”.

For the molecule `CCCCCCCCCCCCCCCCNC(=O)N[C@H](CCCNC(=N)N)C(=O)NCCCCCCCCCCCC.Cl` [SZ193, (2R)—N-dodecyl-5-guanidino-2-(hexadecylcarbamoylamino)pentanamide hydrochloride], the “anti-OVA-specific IgG1 subclass antibody production” value in assay [1] was “significant enhancement”. For the same molecule, the adjuvant activity result in assay [2] (setting [4]) and in assay [2] (setting [5]) was “have an adjuvant activity” each time. Also, in assay [3], the “anti-OVA-specific IgG2a subclass antibody production” value was “significant enhancement”.

On to `CCCCCCCCCCCCCCCC(=O)N[C@H](CCCCN)C(=O)NCCCCCCCCCCCC.Cl` [SZ194, N-[(1R)-5-amino-1-(dodecylcarbamoyl)pentyl]hexadecanamide hydrochloride], for which, in assay [1], the “anti-OVA-specific IgG1 subclass antibody production” value is given as “tended to increase”. Moreover, the adjuvant activity entry in assay [2] (setting [4]) and in assay [2] (setting [5]) was “have an adjuvant activity” each time. Besides, in assay [3], the “anti-OVA-specific IgG2a subclass antibody production” value is listed as “Significant enhancement”.

On to `CCCCCCCCCCCCCCCCCC(=O)N[C@@H](CC(C)C)C(=O)NCCCCCCCCCCCC` [SZ195, N-[(1S)-1-(dodecylcarbamoyl)-3-methyl-butyl]octadecanamide], for which the “anti-OVA-specific IgG1 subclass antibody production” value in assay [1] was “tended to increase”. In addition, the adjuvant activity entry in assay [2] (setting [4]) and in assay [2] (setting [5]) was “have an adjuvant activity” each time. The “anti-OVA-specific IgG2a subclass antibody production” value in assay [3] is “tended to increase”.

Consider `CCCCCCCCCCCCCCCCCC(=O)N[C@@H](CC(C)C)C(=O)NCCCCCCCC` [SZ196, N-[(1S)-3-methyl-1-(octylcarbamoyl)butyl]octadecanamide], for which the “anti-OVA-specific IgG1 subclass antibody production” value in assay [1] is reported as “tended to increase”. Moreover, the adjuvant activity entry in assay [2] (setting [4]) and in assay [2] (setting [5]) was “have an adjuvant activity” throughout. The “anti-OVA-specific IgG2a subclass antibody production” value in assay [3] is “tended to increase”.
